Assay results: patent publication US20030181426A1, “Compositions and methods for treating pain using cyclooxygenase-1 inhibitors” (priority 2002, published 2003)
“Also recorded” adds a separate entry of the source. Where two headings read alike, the source gives them in different places.

Key:
[1] = system: COX-1 and COX-2; settings: as known in the art / Warner, 1999; cited from earlier work
[2] = system: acetic acid-induced writhing response; settings: mice; COX-1 sensitive pain models; Ochi et al. 2000; cited from earlier work
[3] = system: inflammation; settings: rat animal model; compared to indomethancin; Mansferrer et al. 1994; cited from earlier work
[4] = system: tactile allodynia; assay: Partial sciatic nerve ligation (PSNL) tactile allodynia, i.t. COX inhibitors; type: in vivo, Sprague-Dawley rats
From the text: A Sprague-Dawley rats (Harlan Industries, Indianapolis, Ind., USA), weighing 200-250 g, were used in this study. All animal surgical procedures were in conformity with the Wake Forest University guidelines on the ethical use of animals and studies were approved by the Animal Care and Use Committee. Animals were implanted with intrathecal catheters according to the method described previously. (Yaksh TL, 1976). Briefly, under halothane anesthesia (2-4% in oxygen/air), animals were placed prone in a stereotaxic frame and a small incision was made at the back of the neck. A small puncture was made in the atlanto-occipital membrane of the cistema magna and a polyethylene catheter (PE-10, 7.5 cm) was inserted so that the caudal tip reached the lumbar enlargement of the spinal cord. The rostral end of the catheter was exteriorized at the top of the head and the wound was closed with sutures. Animals were allowed 4-5 days to recover from the surgery and those displaying signs of motor dysfunction (fore limb or hind limb paralysis) were excluded from the study. Rats were anesthetized with 2-4% halothane in oxygen-air. For partial […] nerve ligation (PSNL), the left sciatic nerve was exposed at the high thigh level and one-third to one-half of the nerve was ligated with silk suture (size 6) as previously described (Shir et al., 1991). Animals were maintained after surgery with ad libitum food and water on a 12-h light/dark cycle. All rats were allowed to recover for 4 weeks after PSNL. By then, tactile allodynia was well established in the ipsilateral hindpaw.

[5] = system: noxious heat; assay: Latency to paw withdrawal from noxious heat; type: in vivo, male Sprague-Dawley rats; settings: drug alone; rats with intrathecal catheter
Method: After Animal Care and Use Committee approval, adult male Sprague-Dawley rats (240-330 g; Harlan, Indianapolis, Ind.) were anesthetized with halothane. A catheter was inserted, as previously described, through a small nick in the cisterna magnum membrane into the intrathecal space and advanced 7.5 cm such that its tip lay in the lumbar intrathecal space. […] After catheter implantation, rats were housed individually with a 12 h/12 h light/dark cycle and an unlimited supply of water and food. Experiments occurred at least 6 days after surgery.

[6] = system: tactile allodynia; assay: L5 and L6 spinal nerve ligation (SNL) tactile allodynia, lidocaine and ketorolac; type: in vivo, male Sprague-Dawley rats
[7] = system: tactile allodynia; assay: PSNL tactile allodynia, lidocaine; type: in vivo, male Sprague-Dawley rats
[8] = Hind limb weakness or paralysis after lidocaine injection
[9] = rat, in vivo, ip
[10] = system: locomotor activity after laparotomy; assay: Post-laparotomy locomotor activity model; type: in vivo, rats
[11] = system: nociceptive responses; settings: mice with paw inflammation; Mazario et al. 2001; cited from earlier work
[12] = system: nociceptive responses; settings: normal and monoarthritic rats; Mazario et al. 2001; cited from earlier work
[13] = 300 μg intrathecal, 3 days after injection
[14] = IV 3 mg/kg, 24 hr after laparotomy, 3 mg/kg

COc1ccc2cc(CC(=O)O)ccc2c1 [6-methoxy-2-napthyl acetic acid]
preference in inhibition of COX-1 and COX-2 [1]: preferentially inhibit COX-2

COc1ccc(-c2nc(C(=O)N3CCN(C)CC3)sc2-c2ccc(OC)cc2)cc1 [FR122047]
analgesic effect against acetic acid-induced writhing response [2]: dose-dependent analgesic effect

CS(=O)(=O)Nc1ccc([N+](=O)[O-])cc1OC1CCCCC1 [NS-398]
analgesic effect against acetic acid-induced writhing response [2]: had no effect | anti-inflammatory and ulcerogenic effect [3]: anti-inflammatory but not ulcerogenic | withdrawal threshold, ipsilateral hindpaw ([4]; 2 and 4 h after injection): reversed to pre-lesion baseline level | duration of reversal of withdrawal threshold ([4]; 4 weeks after PSNL): 24 h | withdrawal threshold, ipsilateral hindpaw ([4]; 48 h post-injection): returned to pre-injection level

Clc1cccc(Cl)c1N=C1NCCN1 [clonidine]
antinociception (latency to paw withdrawal from noxious heat) [5]: produced antinociception

CC(C(=O)O)c1ccc(-c2ccccc2)c(F)c1 (stereo not shown) [flubiprofen]
preference in inhibition of COX-1 and COX-2 [1]: preferentially inhibit COX-1

CC(C)Cc1ccc(C(C)C(=O)O)cc1 (stereo not shown) [ibuprofen]
preference in inhibition of COX-1 and COX-2 [1]: no or small preferences in inhibition of COX-1 and COX-2

COc1ccc2c(c1)c(CC(=O)O)c(C)n2C(=O)c1ccc(Cl)cc1 [indomethancin]
preference in inhibition of COX-1 and COX-2 [1]: preferentially inhibit COX-1

CCN(CC)CC(=O)Nc1c(C)cccc1C [lidocaine]
tactile allodynia, ipsilateral hind paw ([6]; 100 μg intrathecal, four weeks following SNL, two hours and 2 days following injection): markedly reversed to the prelesion level | withdrawal threshold in the hind paw ([6]; 100 μg intrathecal, three days after injection): not significantly lower than the prelesion baseline value | tactile allodynia, ipsilateral hind paw ([6]; 200 μg intrathecal, four weeks following SNL, two hours and 2 days following injection): markedly reversed to the prelesion level | tactile allodynia, ipsilateral hind paw ([6]; 200 μg intrathecal, three days after injection): reappeared | tactile allodynia, ipsilateral hind paw ([6]; 300 μg intrathecal, four weeks following SNL, two hours and 2 days following injection): markedly reversed to the prelesion level | tactile allodynia, ipsilateral hind paw ([6]; 300 μg intrathecal, three days after injection): reappeared | tactile allodynia ([7]; 300 μg intraperitoneal, four PSNL rats): no attenuation or reversal of tactile allodynia was observed | antiallodynic effect ([7]; 300 μg intrathecal, 1 week after injection): disappeared | effect on the ipsilateral hind paw [7, 13]: antinociceptive effect | reversal of tactile allodynia [7, 13]: also observed | tactile allodynia in both hind paws ([7]; 300 μg intrathecal, two weeks after PSNL, two hours following injection): significantly reversed | transient weakness or paralysis of both hind limbs, incidence ([8]; 100 μg intrathecal): completely absent | transient weakness or paralysis of both hind limbs, incidence ([8]; 200 μg intrathecal): one third of rats | transient weakness or paralysis of both hind limbs, incidence ([8]; 300 μg intrathecal): almost all rats | duration of transient weakness or paralysis ([8]; intrathecal lidocaine): 10 to 20 min | behavior [9]: no abnormal behavior

CN1CC[C@]23c4c5ccc(O)c4O[C@H]2[C@@H](O)C=C[C@H]3[C@H]1C5 [morphine]
ambulatory activity in sham animals ([10]; 1 mg/kg): stimulates ambulatory activity | effect of laparotomy on ambulatory activity [10, 14]: blocked; also recorded: reversed | effect of laparotomy on vertical activity [10, 14]: not vertical counts; also recorded: not vertical activity

CS(=O)(=O)Nc1ccc([N+](=O)[O-])cc1Oc1ccccc1 [nimesulide]
preference in inhibition of COX-1 and COX-2 [1]: preferentially inhibit COX-2

CN1C(C(=O)Nc2ccccn2)=C(O)c2ccccc2S1(=O)=O [piroxicam]
well established tactile allodynia in either hindpaw ([4]; 4 weeks after PSNL): failed to attenuate

CS(=O)(=O)c1ccc(C2=C(c3ccccc3)C(=O)OC2)cc1 [rofecoxib]
reduction of nociceptive responses [11]: no effect | reduction of nociceptive responses [12]: no effect
